PubChem BioAssay (NCI)
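These data come from cells grown in 96-well plates and exposed to compound for 48 hours at five concentrations. TGI: total growth inhibition.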

Legend:
Experiment in all cases: NCI tumour cell line growth inhibition, 48 h
[1] = tested on: 786-0 renal
[2] = tested on: A549 NSCLC
[3] = tested on: ACHN renal
[4] = tested on: CCRF-CEM leukemia
[5] = tested on: COLO 205 colon
[6] = tested on: DMS 114 small cell lung
[7] = tested on: DMS 273 small cell lung
[8] = tested on: EKVX NSCLC
[9] = tested on: HCT-116 colon
[10] = tested on: HCT-15 colon
[11] = tested on: HL-60(TB) leukemia
[12] = tested on: HOP-62 NSCLC
[13] = tested on: HT29 colon
[14] = tested on: IGROV1 ovarian
[15] = tested on: K-562 leukemia
[16] = tested on: KM12 colon
[17] = tested on: KM20L2 colon
[18] = tested on: LOX IMVI melanoma
[19] = tested on: LXFL 529 NSCLC
[20] = tested on: M14 melanoma
[21] = tested on: M19-MEL melanoma
[22] = tested on: MALME-3M melanoma
[23] = tested on: MOLT-4 leukemia
[24] = tested on: NCI-H226 lung
[25] = tested on: NCI-H23 lung
[26] = tested on: NCI-H460 lung
[27] = tested on: NCI-H522 lung
[28] = tested on: OVCAR-3 ovarian
[29] = tested on: OVCAR-4 ovarian
[30] = tested on: OVCAR-5 ovarian
[31] = tested on: OVCAR-8 ovarian
[32] = tested on: RPMI-8226 leukemia
[33] = tested on: RXF 393 renal
[34] = tested on: SF-268 CNS
[35] = tested on: SF-295 CNS
[36] = tested on: SF-539 CNS
[37] = tested on: SK-MEL-2 melanoma
[38] = tested on: SK-MEL-28 melanoma
[39] = tested on: SK-MEL-5 melanoma
[40] = tested on: SN12C renal
[41] = tested on: SNB-19 CNS
[42] = tested on: SNB-75 CNS
[43] = tested on: SR leukemia
[44] = tested on: SW-620 colon
[45] = tested on: TK-10 renal
[46] = tested on: U251 CNS
[47] = tested on: UACC-62 melanoma
[48] = tested on: UO-31 renal
[49] = tested on: XF 498 CNS
[50] = tested on: A498 renal
[51] = tested on: CAKI-1 renal
[52] = tested on: DLD-1 colon
[53] = tested on: HCC-2998 colon
[54] = tested on: HOP-92 NSCLC
[55] = tested on: SK-OV-3 ovarian
[56] = tested on: SNB-78 CNS
[57] = tested on: UACC-257 melanoma

Measured: TGI

Nc1nc(-c2ccco2)cc(-c2ccco2)n1
not listed: [50] | [51] | [52] | [53] | [54] | [55] | [56] | [57]
> 100 µM: all other assays above

O=C1OC(O)c2cc3c(cc21)OCO3 (stereo unspecified)
not listed: [3] | [17] | [24] | [30] | [43]
> 100 µM: all other assays above
